Assay results: US9957262B2, “Opioid analgesic” (NATIONAL UNIVERSITY CORPORATION CHIBA UNIVERSITY, priority 2013, dated 2018)
“Also recorded” adds a separate entry of the source. Read-outs that look alike come from different tables or passages of the source.

How the values were obtained:
[1] = test system: opioid receptors; settings: guinea pig small intestine, via opioid receptors; cited from earlier work
[2] = test system: mice; settings: subcutaneous or oral administration, tail-flick test or hot-plate test; cited from earlier work
[3] = test system: ddY strain mice; assay: Mouse tail-flick test, subcutaneous administration; type: in vivo; settings: for analgesic action in words: s.c., 0.3, 1 and 3 mg/kg; for time after administration at which the analgesic action returned to the vehicle level: any of the doses
Experimental: The results of the test are represented by dose-response curves. […] In addition, a similar test was performed by using a vehicle as a negative control. The analgesic action of each compound was quantified by using a percentage of maximum possible effect (% MPE). % MPE was calculated from the following equation: % MPE=[(Post-drug latency−Pre-drug latency)/(Cut-off time−Pre-drug latency)]×100. The abscissa axis of FIG. 1 indicates a time after the administration of each compound (time after injection (min)).
Six-week-old male ddY strain mice (Japan SLC, Inc.) were used.
MGM-30 and MGM-29 were each dissolved in 25 mM phosphate buffer (pH 5.3 to 5.5). MGM-9, which was a known mitragynine derivative compound, was used as a sample for comparison. MGM-9 was obtained by synthesis according to a method similar to a method described in each of the previous reports (Patent Literatures 2 and 3 and Non Patent Literature 3).
A tail-flick test is a method of evaluating the analgesic effect of a compound, which comprises applying a nociceptive stimulus, for example, a heat stimulus, to the tail of a mouse, and then using as an indicator flight response elicited by the stimulus. Since a mouse respond to the heat stimulus by flicking or moving its tail out of the path of the stimulus, the tail is exposed to a photocell located in a tail-flick analgesia meter (Ugo Basile Tail-flick Unit 7360, Ugo Basile) immediately below the tail. A reaction time is automatically recorded.
Before treatment with the compounds, the vehicle, or physiological saline, a nociceptive threshold was measured three times, and the mean of the reaction time was used as a pre-drug latency for each mouse. The intensity of the heat stimulus was adjusted to such an intensity that mice flicked the tail upward within from 2 seconds to 4 seconds, and a time for heat treatment was set to a maximum stimulation time (cut-off time) of 10 seconds in order to prevent tissue damage. Each of the compounds was subcutaneously administered to mice in a volume of 10 mL/kg with doses 0.3 mg/kg, 1 mg/kg, and 3 mg/kg. A latency after the administration (post-drug latency) was measured 15 minutes, 30 minutes, 45 minutes, 60 minutes, 90 minutes, 120 minutes, and 180 minutes after the administration. The vehicle used for diluting the compounds was used as a control in place of the compounds, and was administered in the same volume. The analgesic action of each compound was quantified through use of a ratio to the maximum drug efficacy, i.e., a percentage of maximum possible effect (hereinafter abbreviated as % MPE) % MPE was calculated from the following equation: % MPE=[(Post-drug latency−Pre-drug latency)/(Cut-off time−Pre-drug latency)]×100. Each value is expressed as the mean of data obtained from six mice±standard error.
Data was expressed as the mean±standard error. Statistical analyses were performed by the two-tailed Student's t test for comparison of two groups and by a one-way analysis of variance followed by a Bonferroni multiple-comparison test for comparison of more than two groups. A P value of <0.05 was considered statistically significant.

[4] = target: T1, human μ-opioid receptors (Homo sapiens, UniProt P35372); assay: Human μ-opioid receptor binding test with [3H]-DAMGO; settings: for Ki: [3H]-DAMGO 1 nM, CHO-K1 membrane fraction expressing human μ-opioid receptor, read-out: hMOR binding Ki
T1 construct: purchased PerkinElmer; host or cells: CHO-K1 cells (membrane fraction)
T1 sequence (P35372 whole entry): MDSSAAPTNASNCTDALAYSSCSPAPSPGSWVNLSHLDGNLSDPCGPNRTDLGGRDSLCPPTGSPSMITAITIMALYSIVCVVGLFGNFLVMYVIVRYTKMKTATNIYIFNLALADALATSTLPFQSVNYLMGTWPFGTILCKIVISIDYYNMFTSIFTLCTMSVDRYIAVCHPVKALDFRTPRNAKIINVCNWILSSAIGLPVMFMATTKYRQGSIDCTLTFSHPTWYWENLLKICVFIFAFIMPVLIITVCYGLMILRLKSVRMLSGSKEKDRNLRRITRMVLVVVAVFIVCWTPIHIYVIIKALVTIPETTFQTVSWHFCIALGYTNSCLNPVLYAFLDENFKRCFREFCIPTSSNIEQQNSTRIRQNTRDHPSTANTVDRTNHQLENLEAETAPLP
Experimental: The binding of each of MGM-30 and MGM-29 to human μ-opioid receptors was evaluated through use of a μ-opioid receptor ligand DAMGO ([D-Ala(2), N-Me-Phe(4), Gly-ol(5)] enkephalin acetate salt). MGM-9 was used as a sample for comparison and evaluated by the same method.
A cell membrane fraction of CHO-K1 cells expressing human μ-opioid receptor gene (manufactured by PerkinElmer) was used as a reagent. The human μ-opioid receptor-expressing cell membrane fraction was diluted to 1 mg/mL or 100 μg/mL with 50 mM Tris-HCl (pH 7.4), and then 1 mL of the dilution was dispensed in each of screw-capped vials, cryopreserved at −80° C., and dissolved before use. DAMGO was prepared at 1 mM with dimethylsulfoxide (hereinafter abbreviated as DMSO), and then dispensed in each of screw-capped vials, cryopreserved at −20° C., and dissolved before use.
A human μ-opioid receptor binding test was performed through use of the human μ-opioid receptor-expressing cell membrane fraction and [^3H]-labeled DAMGO (DAMGO, [TYROSYL-3,5-3H], manufactured by PerkinElmer: hereinafter referred to as [^3H]-DAMGO). Specifically, 10 μL of [^3H]-DAMGO (final concentration: 1 nM) diluted to 50 nM with 50% ethanol was added to 10 μL of a test compound solution obtained by diluting each of MGM-30, MGM-29, and MGM-9 with DMSO so as to have a final concentration of from 0.1 nM to 10,000 nM. 480 μL of the μ-opioid receptor-expressing cell membrane fraction diluted to 40 μg/mL with binding assay buffer (10 mM MgCl2, 50 mM Tris-HCl, 0.2% BSA, pH 7.4) was further added, followed by mixing, and the mixture was then subjected to a reaction at 27° C. for 2 hours. The same tests were performed for measurement of total binding activity by using 10 μL of DMSO in place of the test compound, and for measurement of μ-opioid receptor non-specific binding activity by using 10 μL of 1 mM DAMGO (final concentration: 20 μM) in place of the test compound. The binding reaction was terminated by suction filtration with a GF/C filter (manufactured by Whatman) preimmersed in 0.5% polyethylene imine. The filter was washed four times with 2.5 mL of a washing buffer (10 mM Tris-HCl, pH 7.4), and radioactivity remaining in the filter was measured. Then, a dissociation constant (Kd value) of [^3H]-DAMGO for the μ-opioid receptor-expressing cell membrane fraction was calculated by Scatchard plot analysis.
IC50 value was calculated, which is a test compound concentration at which the specific binding of [^3H]-DAMGO to human μ-opioid receptors was inhibited by 50%, by using analysis software XLfit™ ([…]). Then, an inhibition constant (Ki value) was calculated using the following equation: Ki=IC50/(1+S), S=(Concentration of [^3H]-DAMGO/Kd of [^3H]-DAMGO).

[5] = target: hMOR (human μ-opioid receptors) (Homo sapiens, UniProt P35372); assay: hMOR agonist activity (% DAMGO); type: biochemical
Sequence of hMOR (human μ-opioid receptors) (P35372 whole entry): as above

[6] = Metabolic stability test, human liver microsome; type: in vitro ADME; settings: for Metabolic stability Ms human (% remaining): human liver microsomal fraction, 37° C., 30 minutes, NADPH; for metabolic stability compared to formula (III), in words: in vitro metabolic stability test using liver microsome
Source text: (§1) Liver microsome was used and subjected to a reaction with MGM-30 or MGM-29 for a predetermined time. A sample subjected to the reaction was compared to a sample not subjected to the reaction to calculate a residual ratio for evaluating a degree of a compound that was metabolized in liver. MGM-9 was used as a sample for comparison and evaluated by the same method.
(§2) Commercially available pooled human liver microsome (manufactured by Xenotech) was used as human liver microsome. Pooled rat liver microsome prepared from rat liver by a method known per se was used as rat liver microsome.
(§3) A metabolic stability test was specifically performed as described below. First, a test compound was subjected to a reaction (oxidative reaction) at 37° C. for 0 minutes or 30 minutes in 0.2 mL of a buffer (50 mmol/L tris-HCl pH 7.4, 150 mmol/L potassium chloride, 10 mmol/L magnesium chloride) containing 0.5 mg protein/mL of liver microsome in the presence of 1 mmol/L nicotinamide adenine dinucleotide phosphate (hereinafter abbreviated as NADPH). After the reaction, 50 μL of the reaction liquid was added to 100 μL of a solution of methanol/acetonitrile=1/1 (volume/volume: hereinafter abbreviated as v/v), followed by mixing and centrifugation at 3,000 rpm for 15 minutes. The test compound in the centrifugation supernatant was quantified by liquid chromatograph/tandem mass spectrometry (LC/MS/MS). Then, the amount of the compound at the start of the reaction was defined as 100%, and the residual ratio of the test compound after the reaction was calculated. A hydrolysis reaction was performed in the absence of NADPH, and a glucuronidation reaction was performed in the presence of 5 mM UDP-glucuronic acid in place of NADPH. Then, the same operation was performed.

[7] = Metabolic stability test, rat liver microsome; type: in vitro ADME; settings: rat liver microsomal fraction, 37° C., 30 minutes, NADPH
Source text: as §1, §2, §3

[8] = 3 mg/kg s.c., 15 minutes after administration
[9] = 3 mg/kg s.c., 15 minutes to 60 minutes after administration

Compound | analgesic action (% MPE) [3, 8] | analgesic action (% MPE) [3, 9] [%] | time after administration at which the maximum analgesic action was expressed ([3]; s.c.) [min] | analgesic action in words [3] | time after administration at which the analgesic action returned to the vehicle level ([3]; s.c.) | Ki [4] [nM] | hMOR agonist (% DAMGO) [5] [% DAMGO] | Metabolic stability Ms human (% remaining) [6] [% remaining] | Metabolic stability Ms rat (% remaining) [7] [% remaining] | metabolic stability compared to formula (III), in words [6] | also measured
CC[C@@H]1CN2CC[C@@]3(O)C(=Nc4cccc(OC)c43)[C@@H]2C[C@@H]1/C(=C\OC)C(=O)OC [7-hydroxymitragynine] |  |  |  |  |  |  |  |  |  |  | effect on contraction induced by electrical stimulation [1]: inhibited contraction induced by electrical stimulation; antinociceptive action [2]: remarkable antinociceptive action
CC[C@@H]1CN2CC[C@@]34OCCO[C@@]3(Nc3ccc(F)c(OC)c34)[C@@H]2C[C@@H]1/C(=C\OC)C(=O)OC [MGM-9, reference compound] | 100% | 100 | 15 | dose-dependent analgesic action | One hundred and eighty | 3.5 | 49.0 | 57 | 3 |  | analgesic action (% MPE) ([3]; 1 mg/kg s.c., 15 minutes after administration): 100%; time after administration until which the analgesic action was sustained ([3]; 3 mg/kg s.c.): 120 min
CC[C@@H]1CN2CC[C@@]34OCCC[C@@]3(Nc3cccc(OC)c34)[C@@H]2C[C@@H]1/C(=C\OC)C(=O)OC [MGM-29] | about 20% |  |  | limited analgesic action; also recorded: dose-dependent analgesic action |  | 4.9 | 45.9 | 78 | 36 | remarkably high metabolic stability | analgesic action in words ([3]; listed as formula (II)): exhibited an analgesic action, although the action was determinative; binding affinity for human μ-opioid receptors relative to MGM-9 (formula (III)), in words [4]: comparable to that of MGM-9; binding affinity for human μ-opioid receptors relative to MGM-9 (formula (III)), in words ([4]; listed as formula (II)): comparable to that of the compound represented by the formula (III)
CC[C@@H]1CN2CC[C@@]34OCC[C@@]3(Nc3cccc(OC)c34)[C@@H]2C[C@@H]1/C(=C\OC)C(=O)OC [MGM-30] |  | 100 | 15 | dose-dependent analgesic action; also recorded: most potent analgesic action and had the longest duration of action | 180 min | 0.12 | 46.2 | 92 | 43 | remarkably high metabolic stability | analgesic action (% MPE) ([3]; 0.3 mg/kg s.c., 15 minutes to 30 minutes after administration): about 95%; time after administration until which the analgesic action was sustained ([3]; 1 mg/kg and 3 mg/kg s.c.): 90 min; analgesic action (% MPE) ([3]; 1 mg/kg s.c., 15 minutes to 60 minutes after administration): 100%; analgesic action relative to the compound of formula (III) (MGM-9) ([3]; s.c.): approximately 3 fold; analgesic action in words ([3]; listed as formula (I)): potent analgesic action in a dose-dependent manner; binding affinity for human μ-opioid receptors relative to MGM-9 (formula (III)) [4]: about 30 fold
